Laboratory results taken from patent US20080280862A1, “Methods, compositions, and kits for the treatment of pain” (priority 2007, published 2008).

System: TNFα
Experiment: TNFα secretion by human white blood cells stimulated with PMA/ionomycin, synergy score
Format: cell-based
Design: key: S = Σ Idata(Idata−ILoewe) × ln dilution factors; volume over Loewe additivity
Settings: PBMC stimulated with PMA/Ionomycin
Procedure: A 100 μl suspension of diluted human white blood cells contained within each well of a polystyrene 384-well plate (NalgeNunc) was stimulated to secrete TNFα by treatment with a final concentration of 10 ng/mL phorbol 12-myristate 13-acetate (Sigma, P-1585) and 750 ng/mL ionomycin (Sigma, I-0634). Various concentrations of each test compound were added at the time of stimulation. After 16-18 hours of incubation at 37° C. in a humidified incubator, the plate was centrifuged and the supernatant transferred to a white opaque polystyrene 384-well plate (NalgeNunc, Maxisorb) coated with an anti-TNFα antibody (PharMingen, #551220). After a two-hour incubation, the plate was washed (Tecan PowerWasher 384) with PBS containing 0.1% Tween 20 and incubated for an additional one hour with another anti-TNFα antibody that was biotin labeled (PharMingen, #554511) and HRP coupled to strepavidin (PharMingen, #13047E). After the plate was washed with 0.1% Tween 20/PBS, an HRP-luminescent substrate was added to each well and light intensity measured using a LJL Analyst plate luminometer.
The synergy scores calculated for the various combinations of compounds set forth in Table 3 was calculated by the formula S=log fX log fYΣIdata(Idata−ILoewe), summed over all non-single-agent concentration pairs, and where log fX,Y are the natural logarithm of the dilution factors used for each single agent. This effectively calculates a volume between the measured and Loewe additive response surfaces, weighted towards high inhibition and corrected for varying dilution factors.

[1] = combination with Hydrocortisone

Compound | Synergy Score based on TNF-α inhibition (combination with Betamethasone) | Synergy Score based on TNF-α inhibition (combination with Budesonide) | Synergy Score based on TNF-α inhibition (combination with Clobetasol) | Synergy Score based on TNF-α inhibition (combination with Dexamethasone) | Synergy Score based on TNF-α inhibition (combination with Diflorasone) | Synergy Score based on TNF-α inhibition [1] | Synergy Score based on TNF-α inhibition (combination with Prednisolone) | Synergy Score based on TNF-α inhibition (combination with Triamcinolone)
CN(C)CCCN1c2ccccc2CCc2ccc(Cl)cc21 [Clomipramine] | 0.78 | 0.61 | 0.65 | 1.2 | 0.55 | 0.6 | 0.82 | 0.5
CN(C)CCC=C1c2ccccc2C=Cc2ccccc21 [Cyclobenzaprine] | 0.29 | 0.7 |  | 1.2 |  | 0.21 | 0.36 | 0.37
CN1CCC(=C2c3ccccc3C=Cc3ccccc32)CC1 [Cyproheptadine] | 0.8 | 0.56 |  | 1.3 |  | 0.75 | 1.3 | 0.57
CNCCCN1c2ccccc2CCc2ccccc21 [Desipramine] | 0.69 | 1 | 0.52 | 1.6 | 0.5 | 0.74 | 1.3 | 0.44
CN(C)CCCN1c2ccccc2CCc2ccccc21 [Imipramine] | 0.34 | 0.88 |  |  | 0.43 | 0.82 | 0.61 | 0.34
CN1CCC(=C2c3ccccc3CC(=O)c3sccc32)CC1 [Ketotifen] | 0.37 | 0.15 |  | 1.6 |  | 0.31 | 0.78 | 0.15
CNCCCC1c2ccccc2C=Cc2ccccc21 [Protriptyline] | 0.53 | 1.2 | 0.95 | 1.3 | 0.67 | 0.68 | 1.1 | 0.37
